# Results published in patent US11098010B2 (priority 2017, dated 2021).
# Counter-ions that a name gives are not always drawn. Like-named read-outs stand apart in the source and are kept apart here.
# Test system: HBV rcDNA in HepDE19 cells
# Assay: HepDE19 assay with bDNA quantitation of HBV rcDNA
# Format: cell-based, hepatitis B virus (HBV)
# [1] = Hepatitis B virus, HepDE19, 168 h, HepDE19 cells, inhibition of rcDNA formation, 7 day incubation, top concentration 25 μM, read-out: DE-19 bDNA EC50
# [2] = Hepatitis B virus, HepDE19, 168 h, read-out: DE-19 bDNA EC50 (μM), HepDE19 cells, inhibition of rcDNA formation, 7 day incubation, top concentration 25 μM
# [3] = HepDE19 cells, inhibition of rcDNA formation, 7 day incubation, top concentration 25 μM, read-out: DE-19 bDNA EC50
structure (smiles),measurement,setting,value
"O=C(Nc1ccc(F)c(Cl)c1)c1cccc2c1CC[C@@H]2NS(=O)(=O)C1CC1 [Compound 216, (S)—N-(3-chloro-4-fluorophenyl)-1-(cyclopropanesulfonamido)-2,3-dihydro-1H-indene-4-carboxamide]",EC50,[1],0.04 µM
"O=C(N[C@H]1CCc2c(C(=O)Nc3ccc(F)c(Cl)c3)ccc(F)c21)OCCn1ccnc1 [Compound 96, O-2-(1H-Imidazol-1-yl)ethyl, N—(S)-(4-((3-chloro-4-fluorophenyl)carbamoyl)-7-fluoro-2,3-dihydro-1H-inden-1-yl) carbamate Hydrochloride]",EC50,[2],0.3 µM
"O=C(N[C@H]1CCc2c(C(=O)Nc3ccc(F)c(Cl)c3)ccc(F)c21)OCCF [Compound 76, O-2-Fluoroethyl, N—(S)-(4-((3-chloro-4-fluorophenyl)carbamoyl)-7-fluoro-2,3-dihydro-1H-inden-1-yl) carbamate]",EC50,[3],0.11 µM
"O=C1C[C@@H](OC(=O)N[C@H]2CCc3c(C(=O)Nc4ccc(F)c(Cl)c4)ccc(F)c32)CN1 [Compound 72, O—(R)-5-Oxopyrrolidin-3-yl, N—((S)-4-((3-chloro-4-fluorophenyl)carbamoyl)-7-fluoro-2,3-dihydro-1H-inden-1-yl) carbamate]",EC50,[1],0.24 µM
"O=C(N[C@H]1CCc2c(C(=O)Nc3ccc(F)c(Cl)c3)ccc(F)c21)OCC1CS(=O)(=O)CCN1 (stereo partly drawn) [Compound 177, O-(1,1-Dioxidothiomorpholin-3-yl)methyl, N—((S)-4-((3-chloro-4-fluorophenyl)carbamoyl)-7-fluoro-2,3-dihydro-1H-inden-1-yl) carbamate Hydrochloride]",EC50,[2],0.5 µM
"CNC(=O)O[C@H]1CCc2c(C(=O)Nc3ccc(F)c(Cl)c3)ccc(F)c21 [Compound 89, O—(S)-4-((3-Chloro-4-fluorophenyl)carbamoyl)-7-fluoro-2,3-dihydro-1H-inden-1-yl, N-methyl Carbamate]",EC50,[1],0.56 µM
"O=C(Nc1ccc(F)c(Cl)c1)c1ccc(F)c2c1OCC2NS(=O)(=O)C1CC1 (single isomer, unassigned) [Compound 208, N-(3-chloro-4-fluorophenyl)-3-(cyclopropanesulfonamido)-4-fluoro-2,3-dihydrobenzofuran-7-carboxamide]",EC50,[3],0.11 µM
"CNC(=O)N[C@H]1CCc2c(C(=O)Nc3ccc(F)c(C)c3)ccc(F)c21 [Compound 12, (S)-7-Fluoro-N-(4-fluoro-3-methylphenyl)-1-(3-methylureido)-2,3-dihydro-1H-indene-4-carboxamide]",EC50,[2],0.38 µM
"[2H]C([2H])(OC(=O)N[C@H]1CCc2c(C(=O)Nc3ccc(F)c(Cl)c3)ccc(F)c21)c1ncn(C([2H])([2H])[2H])n1 [Compound 252, O-((1-(Methyl-d3)-1H-1,2,4-triazol-3-yl)methyl-d2, N—(S)-(4-((3-chloro-4-fluorophenyl)carbamoyl)-7-fluoro-2,3-dihydro-1H-inden-1-yl) carbamate]",EC50,[1],0.13 µM
"O=C(NC1c2c(F)ccc(C(=O)Nc3ccc(F)c(Cl)c3)c2CC1(F)F)OCc1ccccn1 (stereo not shown) [Compound 220, O-pyridin-2-ylmethyl, N-(4-((3-chloro-4-fluorophenyl)carbamoyl)-2,2,7-trifluoro-2,3-dihydro-1H-inden-1-yl) carbamate]",EC50,[3],10 µM
"O=C(N[C@H]1CCc2c(C(=O)Nc3ccc(F)c(Cl)c3)ccc(F)c21)OCc1ncco1 [Compound 94, O-Oxazol-2-ylmethyl, N—(S)-(4-((3-chloro-4-fluorophenyl)carbamoyl)-7-fluoro-2,3-dihydro-1H-inden-1-yl) carbamate]",EC50,[1],0.07 µM
"Cc1cc(NC(=O)c2cccc3c2CC[C@@H]3NC(=O)OC[C@H]2CCC(=O)N2)ccc1F [Compound 24, O—((R)-5-Oxopyrrolidin-2-yl)methyl, N—((S)-4-((4-fluoro-3-methylphenyl)carbamoyl)-2,3-dihydro-1H-inden-1-yl) carbamate]",EC50,[2],1.5 µM
"COC(=O)NC1CC(C)(C)c2c(C(=O)Nc3ccc(F)c(Cl)c3)ccc(F)c21 (stereo not shown) [Compound 282, O-methyl, N-(4-((3-chloro-4-fluorophenyl)carbamoyl)-7-fluoro-3,3-dimethyl-2,3-dihydro-1H-inden-1-yl) carbamate]",EC50,[3],15 µM
"O=C1NC(=O)C2(CCc3c(C(=O)Nc4ccc(F)c(Cl)c4)ccc(F)c32)N1 (single isomer, unassigned) [Compound 257, N-(3-chloro-4-fluoro-phenyl)-7′-fluoro-2,5-dioxo-spiro[imidazolidine-4,1′-indane]-4′-carboxamide]",EC50,[3],> 25 µM
"O=C(Nc1ccc(F)c(Cl)c1)c1ccc(F)c2c1CC[C@@H]2NS(=O)(=O)C1CCCCC1 [Compound 240, (S)—N-(3-Chloro-4-fluorophenyl)-1-(cyclohexanesulfonamido)-7-fluoro-2,3-dihydro-1H-indene-4-carboxamide]",EC50,[1],0.51 µM
"O=C1CC[C@H](COC(=O)N[C@H]2CCc3c(C(=O)Nc4ccc(F)c(Cl)c4)ccc(F)c32)N1 [Compound 9, O—((R)-5-Oxopyrrolidin-2-yl)methyl, N—((S)-4-((3-chloro-4-fluorophenyl)carbamoyl)-7-fluoro-2,3-dihydro-1H-inden-1-yl) carbamate]",EC50,[2],0.58 µM
"O=C(OCc1ccccn1)O[C@H]1CCc2c(C(=O)Nc3ccc(F)c(Cl)c3)ccc(F)c21 [Compound 90, (S)-4-((3-Chloro-4-fluorophenyl)carbamoyl)-7-fluoro-2,3-dihydro-1H-inden-1-yl (pyridin-2-ylmethyl) carbonate]",EC50,[1],1.9 µM
"COC(=O)N[C@H]1CCc2c(C(=O)Nc3ccc(F)c(F)c3)cccc21 [Compound 1, O-methyl, N—(S)-(4-((3,4-difluorophenyl)carbamoyl)-2,3-dihydro-1H-inden-1-yl) carbamate]",EC50,[1],0.64 µM
"COCCCOC(=O)N[C@H]1CCc2c(C(=O)Nc3ccc(F)c(Cl)c3)ccc(F)c21 [Compound 114, O-3-Methoxypropyl, N—(S)-(4-((3-chloro-4-fluorophenyl)carbamoyl)-7-fluoro-2,3-dihydro-1H-inden-1-yl) carbamate]",EC50,[2],0.47 µM
"O=C(NC1CSc2c(C(=O)Nc3ccc(F)c(Cl)c3)ccc(F)c21)OCc1ccccn1 (stereo not shown) [Compound 66, O-Pyridin-2-ylmethyl, N-(7-((3-chloro-4-fluorophenyl)carbamoyl)-4-fluoro-2,3-dihydrobenzo[b]thiophen-3-yl) carbamate]",EC50,[3],0.44 µM
"N#CCCCOC(=O)N[C@H]1CCc2c(C(=O)Nc3ccc(F)c(Cl)c3)ccc(F)c21 [Compound 256, O—(S)-3-Cyanopropyl, N-4-(3-chloro-4-fluorophenylcarbamoyl)-7-fluoro-2,3-dihydro-1H-inden-1-yl carbamate]",EC50,[1],0.24 µM
"O=C(N[C@H]1CCc2c(C(=O)Nc3ccc(F)c(Cl)c3)ccc(F)c21)c1ccccn1 [Compound 115, (S)—N-(4-((3-Chloro-4-fluorophenyl)carbamoyl)-7-fluoro-2,3-dihydro-1H-inden-1-yl)picolinamide]",EC50,[1],2.2 µM
"O=C(N[C@H]1CCc2c(C(=O)Nc3ccc(F)c(Cl)c3)ccc(F)c21)OCCCn1ccnc1 [Compound 125, O-3-(1H-Imidazol-1-yl)propyl, N—(S)-(4-((3-chloro-4-fluorophenyl)carbamoyl)-7-fluoro-2,3-dihydro-1H-inden-1-yl) carbamate Hydrochloride]",EC50,[2],0.28 µM
"O=C(N[C@H]1CCc2c(C(=O)Nc3ccc(F)c(Cl)c3)ccc(F)c21)OCc1cncs1 [Compound 91, O-Thiazol-5-ylmethyl, N—(S)-(4-((3-chloro-4-fluorophenyl)carbamoyl)-7-fluoro-2,3-dihydro-1H-inden-1-yl) carbamate]",EC50,[1],0.07 µM
"O=C(N[C@H]1CCc2c(C(=O)Nc3ccc(F)c(Cl)c3)ccc(F)c21)OCc1cn2ccccc2n1 [Compound 41, O-Imidazo[1,2-a]pyridin-2-ylmethyl, N—(S)-(4-((3-chloro-4-fluorophenyl)carbamoyl)-7-fluoro-2,3-dihydro-1H-inden-1-yl) carbamate]",EC50,[1],0.16 µM
"O=C(N[C@H]1CCc2c(C(=O)Nc3ccc(F)c(Cl)c3)ccc(F)c21)c1cnco1 [Compound 129, (S)—N-(4-((3-Chloro-4-fluorophenyl)carbamoyl)-7-fluoro-2,3-dihydro-1H-inden-1-yl)oxazole-5-carboxamide]",EC50,[1],0.41 µM
"N#Cc1cc(NC(=O)c2ccc(F)c3c2CC[C@@H]3NC(=O)OCc2ccccn2)ccc1F [Compound 126, O-Pyridin-2-ylmethyl, N—(S)-(4-((3-cyano-4-fluorophenyl)carbamoyl)-7-fluoro-2,3-dihydro-1H-inden-1-yl)carbamate Hydrochloride]",EC50,[2],0.24 µM
"O=C(NC1CSc2c(C(=O)Nc3ccc(F)c(Cl)c3)cccc21)OCc1ccccn1 (stereo not shown) [Compound 28, O-pyridin-2-ylmethyl, N-(7-((3-chloro-4-fluorophenyl)carbamoyl)-2,3-dihydrobenzo[b]thiophen-3-yl) carbamate]",EC50,[3],0.76 µM
"O=C(NCc1ccccn1)N[C@H]1CCc2c(C(=O)Nc3ccc(F)c(Cl)c3)ccc(F)c21 [Compound 149, (S)—N-(3-chloro-4-fluorophenyl)-7-fluoro-1-(3-(pyridin-2-ylmethyl)ureido)-2,3-dihydro-1H-indene-4-carboxamide Hydrochloride]",EC50,[2],0.21 µM
"CNC(=O)NC1COc2c(C(=O)Nc3ccc(F)c(C)c3)ccc(F)c21 (single isomer, unassigned) [Compound 203, 4-Fluoro-N-(4-fluoro-3-methylphenyl)-3-(3-methylureido)-2,3-dihydrobenzofuran-7-carboxamide]",EC50,"read-out: DE-19 bDNA EC50, HepDE19 cells, inhibition of rcDNA formation, 7 day incubation, top concentration 25 μM",> 25 µM
"O=C(N[C@H]1CCc2c(C(=O)Nc3ccc(F)c(Cl)c3)ccc(F)c21)OCCC(F)(F)F [Compound 70, O-3,3,3-Trifluoropropyl, N—(S)-(4-((3-chloro-4-fluorophenyl)carbamoyl)-7-fluoro-2,3-dihydro-1H-inden-1-yl) carbamate]",EC50,[1],0.29 µM
